Measured values: US7217532B2, “Methods for detecting DNA damage and screening for cancer therapeutics” (The Wistar Institute of Anatomy and Biology, priority 2000, dated 2007)

B1: AA residues 1–34 and 1047–1711: 53Bp1 deletion mutant, deletion of residues 35–1046 and 1712–1972 of SEQ ID NO: 2, HA-tagged (protein)
chain: MDPTGSQLDSDFSQQDTPCLIIEDSQPESQVLEDEARSEDPPTTPIRGNLLHFPSSQGEEEKEKLEGDHTIRQSQQPMKPISPVKDPVSPASQKMVIQGPSSPQGEAMVTDVLEDQKEGRSTNKENPSKALIERPSQNNIGIQTMECSLRVPETVSAATQTIKNVCEQGTSTVDQNFGKQDATVQTERGSGEKPVSAPGDDTESLHSQGEEEFDMPQPPHGHVLHRHMRTIREVRTLVTRVITDVYYVDGTEVERKVTEETEEPIVECQECETEVSPSQTGGSSGDLGDISSFSSKASSLHRTSSGTSLSAMHSSGSSGKGAGPLRGKTSGTEPADFALPSSRGGPGKLSPRKGVSQTGTPVCEEDGDAGLGIRQGGKAPVTPRGRGRRGRPPSRTTGTRETAVPGPLGIEDISPNLSPDDKSFSRVVPRVPDSTRRTDVGAGALRRSDSPEIPFQAAAGPSDGLDASSPGNSFVGLRVVAKWSSNGYFYSGKITRDVGAGKYKLLFDDGYECDVLGKDILLCDPIPLDTEVTALSEDEYFSAGVVKGHRKESGELYYSIEKEGQRKWYKRMAVILSLEQGNRLREQYGLGPYEAVTPLTKAADISLDNLVEGKRKRRSNVSSPATPTASSSSSTTPTRKITESPRASMGVLSGKRKLITSEEERSPAKRGRKSATVKPGAVGAGEFVSPCESGDNTGE
modifications: HA tag; human 53Bp1
B2: AA residues 1–34 and 1411–1711: 53Bp1 deletion mutant, deletion of residues 35–1410 and 1712–1972 of SEQ ID NO: 2, HA-tagged (protein)
chain: MDPTGSQLDSDFSQQDTPCLIIEDSQPESQVLEDTRETAVPGPLGIEDISPNLSPDDKSFSRVVPRVPDSTRRTDVGAGALRRSDSPEIPFQAAAGPSDGLDASSPGNSFVGLRVVAKWSSNGYFYSGKITRDVGAGKYKLLFDDGYECDVLGKDILLCDPIPLDTEVTALSEDEYFSAGVVKGHRKESGELYYSIEKEGQRKWYKRMAVILSLEQGNRLREQYGLGPYEAVTPLTKAADISLDNLVEGKRKRRSNVSSPATPTASSSSSTTPTRKITESPRASMGVLSGKRKLITSEEERSPAKRGRKSATVKPGAVGAGEFVSPCESGDNTGE
modifications: HA tag; human 53Bp1
B3: AA residues 1–34 and 1047–1972: 53Bp1 deletion mutant, deletion of residues 35–1046 of SEQ ID NO: 2, HA-tagged (protein)
chain: MDPTGSQLDSDFSQQDTPCLIIEDSQPESQVLEDEARSEDPPTTPIRGNLLHFPSSQGEEEKEKLEGDHTIRQSQQPMKPISPVKDPVSPASQKMVIQGPSSPQGEAMVTDVLEDQKEGRSTNKENPSKALIERPSQNNIGIQTMECSLRVPETVSAATQTIKNVCEQGTSTVDQNFGKQDATVQTERGSGEKPVSAPGDDTESLHSQGEEEFDMPQPPHGHVLHRHMRTIREVRTLVTRVITDVYYVDGTEVERKVTEETEEPIVECQECETEVSPSQTGGSSGDLGDISSFSSKASSLHRTSSGTSLSAMHSSGSSGKGAGPLRGKTSGTEPADFALPSSRGGPGKLSPRKGVSQTGTPVCEEDGDAGLGIRQGGKAPVTPRGRGRRGRPPSRTTGTRETAVPGPLGIEDISPNLSPDDKSFSRVVPRVPDSTRRTDVGAGALRRSDSPEIPFQAAAGPSDGLDASSPGNSFVGLRVVAKWSSNGYFYSGKITRDVGAGKYKLLFDDGYECDVLGKDILLCDPIPLDTEVTALSEDEYFSAGVVKGHRKESGELYYSIEKEGQRKWYKRMAVILSLEQGNRLREQYGLGPYEAVTPLTKAADISLDNLVEGKRKRRSNVSSPATPTASSSSSTTPTRKITESPRASMGVLSGKRKLITSEEERSPAKRGRKSATVKPGAVGAGEFVSPCESGDNTGEPSALEEQRGPLPLNKTLFLGYAFLLTMATTSDKLASRSKLPDGPTGSSEEEEEFLEIPPFNKQYTESQLRAGAGYILEDFNEAQCNTAYQCLLIADQHCRTRKYFLCLASGIPCVSHVWVHDSCHANQLQNYRNYLLPAGYSLEEQRILDWQPRENPFQNLKVLLVSDQQQNFLELWSEILMTGGAASVKQHHSSAHNKDIALGVFDVVVTDPSCPASVLKCAEALQLPVVSQEWVIQCLIVGERIGFKQHPKYKHDYVSH
modifications: HA tag; human 53Bp1
B4: AA residues 1661–1972: 53Bp1 deletion mutant, deletion of residues 1–1660 of SEQ ID NO: 2, HA-tagged (protein)
chain: MGVLSGKRKLITSEEERSPAKRGRKSATVKPGAVGAGEFVSPCESGDNTGEPSALEEQRGPLPLNKTLFLGYAFLLTMATTSDKLASRSKLPDGPTGSSEEEEEFLEIPPFNKQYTESQLRAGAGYILEDFNEAQCNTAYQCLLIADQHCRTRKYFLCLASGIPCVSHVWVHDSCHANQLQNYRNYLLPAGYSLEEQRILDWQPRENPFQNLKVLLVSDQQQNFLELWSEILMTGGAASVKQHHSSAHNKDIALGVFDVVVTDPSCPASVLKCAEALQLPVVSQEWVIQCLIVGERIGFKQHPKYKHDYVSH
modifications: HA tag; human 53Bp1
B5: AA residues 1–34 and 1220–1711: 53Bp1 deletion mutant, deletion of residues 35–1219 and 1712–1972 of SEQ ID NO: 2, HA-tagged (protein)
chain: MDPTGSQLDSDFSQQDTPCLIIEDSQPESQVLEDQGEEEFDMPQPPHGHVLHRHMRTIREVRTLVTRVITDVYYVDGTEVERKVTEETEEPIVECQECETEVSPSQTGGSSGDLGDISSFSSKASSLHRTSSGTSLSAMHSSGSSGKGAGPLRGKTSGTEPADFALPSSRGGPGKLSPRKGVSQTGTPVCEEDGDAGLGIRQGGKAPVTPRGRGRRGRPPSRTTGTRETAVPGPLGIEDISPNLSPDDKSFSRVVPRVPDSTRRTDVGAGALRRSDSPEIPFQAAAGPSDGLDASSPGNSFVGLRVVAKWSSNGYFYSGKITRDVGAGKYKLLFDDGYECDVLGKDILLCDPIPLDTEVTALSEDEYFSAGVVKGHRKESGELYYSIEKEGQRKWYKRMAVILSLEQGNRLREQYGLGPYEAVTPLTKAADISLDNLVEGKRKRRSNVSSPATPTASSSSSTTPTRKITESPRASMGVLSGKRKLITSEEERSPAKRGRKSATVKPGAVGAGEFVSPCESGDNTGE
modifications: HA tag; human 53Bp1

System: 53Bp1 foci in U2OS cells
Assay: Effect of wortmannin or caffeine on ionizing radiation-induced 53Bp1 foci, by immunofluorescent microscopy
Type: cell-based, human
Details: 20 μM wortmannin, 1 Gy ionizing radiation, at 30 minutes

Molecule | reduction of percentage of cells containing 53Bp1 ionizing radiation-induced foci
COC[C@H]1OC(=O)c2coc3c2[C@@]1(C)C1=C(C3=O)[C@@H]2CCC(=O)[C@@]2(C)C[C@H]1OC(C)=O [wortmannin] | ~50%

System: 53Bp1 foci in U2OS cells
Assay: 53Bp1 foci formation in cells treated with DNA damaging agents, by immunofluorescence
Details: 0.2 mM etoposide; 1 mM hydroxyurea for 1 to 25 hours

Molecule | 53Bp1-containing foci formation in treated cells
NC(=O)NO [HU, hydroxyurea] | do not form

System: ionizing radiation-induced foci in U2OS cells
Assay: Localization of HA-tagged 53Bp1 deletion mutants to ionizing radiation-induced foci in U2OS cells
Type: cell-based, human
Details: HA-tagged proteins expressed in U2OS cells, immunofluorescence after ionizing radiation
Description: Stably transfected U2OS cell lines were created by transfecting the plasmid pSV2 [Chehab, N. H. et al, 1999 Proc. Natl. Acad. Sci., USA, 96:13777–13782] containing various N-terminal hemaglutinin (HA) tagged versions of 53Bp1. HA53Bp1 is the full-length protein bearing the HA tag on its N terminus. HA53Bp1ΔBRCT is similar to HA53Bp1 with amino acids 1713 to 1973 (the BRCT domains) of SEQ ID NO: 2 deleted therefrom. HA53Bp1C312 contains only the C-terminal 312 amino acids of 53Bp1, which include the nuclear localization signal (i.e., amino acids 1662 to 1701 of SEQ ID NO: 2 and the BRCT domain (amino acids 1702–1973 of SEQ ID NO: 2). The U2OS cells on cover slips were transiently transfected with the selected plasmid using the calcium phosphate method. Positively transfected colonies were pooled after selecting with neomycin. Expression was allowed to occur for 30 hours and then cells were treated, fixed, stained, and visualized as described below.
The following experiments were performed to identify the minimal focus-targeting (FT) domain of the relatively large (1972 amino acids) 53Bp1 protein [SEQ ID NO: 2]. The FT domain is the portion of the protein sequence required for targeting to ionizing radiation-induced foci. The FT domain participates in the mechanism of 53Bp1 relocalization. In addition, fragments of 53Bp1 that retain the ability to form ionizing radiation-induced foci act as dominant negative mutants by competing with endogenous 53Bp1 for localization to the IR-induced 53Bp1-binding sites.
A series of 53Bp1 deletion mutants was generated and expressed as HA-tagged proteins in U2OS cells. These cells were examined by immuno-fluorescence for their intracellular localization in response to ionizing radiation, as described in Examples 1 and 2. Nuclear localization is considered to be a prerequisite for targeting of 53Bp1 to ionizing radiation-induced foci. Therefore, all the mutants were constructed so that they retained the NLS of 53Bp1.

Molecule | Ionizing Radiation-Induced Foci Localization
full-length: full-length 53Bp1, AA residues 1–1972 of SEQ ID NO: 2, HA-tagged | Yes
AA residues 1–1053 and 1220–1972: 53Bp1 deletion mutant, deletion of residues 1054–1219 of SEQ ID NO: 2, HA-tagged | Yes
AA residues 1–1053 and 1411–1972: 53Bp1 deletion mutant, deletion of residues 1054–1410 of SEQ ID NO: 2, HA-tagged | No
AA residues 1–1711: 53Bp1 deletion mutant, deletion of AA residues 1712–1972 of SEQ ID NO: 2, HA-tagged | Yes
B1 | Yes
B2 | No
B3 | Yes
B4 | No
B5 | Yes
